Entries after “also recorded” stand apart in the source; their conditions may differ. Like-named read-outs stand apart in the source and are kept apart here.
Tests used:
human KB cell cultures [1] = system: human KB cell cultures
Experimental: (§1) The cytotoxicity of diaminosucrose platinum complexes was evaluated on human KB cell cultures as follows:
(§2) Graded doses of the respective diaminosucrose platinum (II) complexes tested contained in 0.1 ml of MEM medium were added to tube cultures of KB cells (contained in 1 ml of MEM medium with 4% fetal calf serum) immediately after seeding of ca. 2×10,000 cells/mi.
(§3) The incubated cultures were seeded every 3 days by 3 times dilution with the particular complex tested to maintain exponential cell growth.
(§4) After incubation the relative cytotoxic activity of the various platinum complexes was evaluated as follows:
(§5) Treated and untreated (control) tumor cell lines were viewed under the microscope and the number of dead cells quantified by visual means. Zero activity means that 100% of the treated cells survived, i.e., like the control.

E. coli = settings: cited from earlier work
human KB cell cultures [2] = assay: Cytotoxicity test on human KB cell cultures (Examples 8 and 9); settings: cells continuously cultured with the complex
Experimental: as §1, §2, §3, §4, §5

[3] = Solubility of sucrose platinum complexes; type: physicochemical; settings: water, limits the dose
human KB cell cultures [4] = assay: Cytotoxicity test of sucrose mono-, bis- and tris(platinum) complexes on human KB cell cultures (Example 11); type: cell-based; settings: 10 μg/ml
Experimental: Cultures were seeded after 3 days by 3 times dilution with the platinum complex in order to maintain exponential growth.
The platinum complexes tested were cis-platin, a mono(platinum) complex of 6,6'-diamino-6,6'-dideoxy-1',2,3,3',4,4'-hexa-O-methylsucrose, a bis(platinum) complex of 6,6'-diamino-6,6'-dideoxy-1',2-anhydrosucrose and a tris(platinum) complex of 1',6,6' -triamino-1',6,6'-trideoxy-2,3,3',4,4'-penta-O-methylsucrose.

Lewis lung carcinoma [5] = assay: Effect on intraperitoneally implanted Lewis lung carcinoma in mice (Examples 10 and 12);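 also: C57BL/6 mice bearing Lewis lung tumor cells implanted intraperitoneally, treated intraperitoneally in distilled water starting day 1 after implantation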
Experimental: Young adult syngeneic C57BL/6 mice (ca. 17-19 grams) were implanted intraperitoneally with 3-5×10^5 Lewis Lung tumor cells. The respective diaminosucrose platinum (II) compounds were then administered intraperitoneally in distilled water commencing the first day after tumor implantation.
Lewis Lung tumor cells (3-5×10^5) were inoculated intraperitoneally (i.p.) into young adult syngeneic C57BL/6 mice (ca. 17-19g body weight). Administration of the platinum complexes (contained in 0.1 ml of distilled water) was started on day 1 after tumor implantation.

P388 leukemia [6] = assay: Effect of sucrose bis(platinum) complex on P388 leukemia in syngeneic DBA/2 mice (Example 15); type: in vivo
Source text: The effect of the sucrose bis(platinum) complex on P388 leukemia cells in syngeneic DBA/2 mice was further evaluated.

P388 leukemia [7] = assay: Effect of dose of sucrose bis(platinum) complex on P388 leukemia in syngeneic DBA/2 mice (Example 14); type: in vivo; settings: for Changes of body weight day 1 to 2 / Increase in life span / Mean survival time: day 1
Experimental: The effect of dose of sucrose bis(platinum complex on P388 leukemia cells in syngeneic DBA/2 mice was evaluated. A 0.1 ml of 10× dilution of P388 ascites (ca. 10^6 cells) was injected intraperitoneally (i.p.) into syngeneic DBA/2 mice (ca. 20 g body weight). The i.p. administration was effected on day 1 only. The bis(platinum) complex (1.0 mg/0.1 ml distilled water) had been stored for 77 days at 4° C. before administration.

Lewis lung carcinoma [8] = assay: Effect of dose of sucrose bis(platinum) complex on intraperitoneally implanted Lewis lung carcinoma in mice (Example 13); type: in vivo
Experimental: The effect of dosage of the sucrose bis(platinum) complex on intraperitoneally implanted Lewis lung carcinoma cells was evaluated in mice. […] Administration of the complex (in 0.1 ml of distilled water) was effected on day 2 and day 4 after implantation.

[9] = cells; cited from earlier work
[10] = 0.5 mg/mouse i.p., day 1, 2, 3, 6
[11] = 2 mg×2 i.p., listed as sucrose bis(platinum) complex

## NCCN.O=C1[O][Pt][O]C(=O)C12CC2 [Sample No. 9, cis-(ethylenediamino-N,N')-1,1-cyclopropanedicarboxylatoplatinum]
Human KB cell cultures [1]
  cytotoxicity (in words): more toxic than Sample No. 10 or Sample No. 6

## N.N.[Cl][Pt]([Cl])([Cl])[Cl] [cis-cis-trans-diaminetetrachloroplatinum (IV)]
E. coli
  prevention of DNA replication (in words): have the ability to prevent DNA replication in E. coli

## N.N.[Cl-].[Cl-].[OH-].[OH-].[Pt+4] [cis, cis-diamine-dichloro-trans-dihydroxoplatinum (IV)]
E. coli
  prevention of DNA replication (in words): have the ability to prevent DNA replication in E. coli

## NC1C(O)OC(CO)C(O)C1O.[NH2][Pt]([Cl])[Cl] (centres unmarked) [Sample No. 11, N-(amminedichloroplatinato)-2-aminoglucose]
Human KB cell cultures [1]
  cytotoxicity (in words): appears not to exhibit toxicity immediately but rather exhibits a delayed toxic response which occurs gradually during the incubation period

## COCC1(OC2OC(CN)C(OC)C(OC)C2OC)OC(CN)C(OC)C1OC.O=C1[O][Pt][O]C(=O)C12CC2 (stereo not drawn) [Sample No. 5, N,N'-(cis-[1,1-cyclopropanedicarboxylato-platinato)]-6,6'-diamino-6,6'-dideoxy-1',2,3,3',4,4'-hexa-O-methylsucrose]
Human KB cell cultures [1]
  cytotoxicity (in words): not very toxic

## COC1C(CN)OC(OC2(CN)OC(CN)C(OC)C2OC)C(OC)C1OC.[NH2][Pt]([Cl])[Cl].[NH2][Pt]([Cl])[Cl].[NH2][Pt]([Cl])[Cl] (stereo not drawn) [Sample No. 7, N,N',N"-tris[cis-amminedichloroplatinato]-1'6,6'-triamino-1',6,6'-trideoxy-2,3,3',4,4'-penta-O-methylsucrose]
Human KB cell cultures [2]
  minimum cytotoxic concentration: 10 µg/mL
[3]
  aqueous solubility (in words): Larger dosages were not possible because of the solubility constraints
[3]; listed as sucrose tris(platinum) complex
  aqueous solubility (in words): limited solubility
Human KB cell cultures [4]; 7.9 nM, 10 days incubation
  Cytotoxicity: 3+ (66% of the treated cells appear to be dead)
Lewis lung carcinoma [5]; [10]
  Changes of body weight day 1 to 7: -0.8 g
  Increase in life span: > 255%
  Mean survival days: > 39.8 days
  No. of mice survival/total: 3/5
Lewis lung carcinoma [5]; 0.5 mg×4 i.p.
  antitumor activity (in words): remarkable antitumor activity
  reduction of body weight (in words): moderate reduction of body weight
Lewis lung carcinoma [5]; 0.5 mg×4 i.p., observation to day 50
  survival and tumor-free outcome (in words): Two mice died of tumor growth on day 22 and day 27. Three mice survived tumor-free until the end of the observation period (day 50)
Lewis lung carcinoma [5]; 0.5 mg×4 i.p., listed as sucrose tris(platinum) complex
  reduction of body weight (in words): moderate .reduction in body weight

## N.N.NCC1OC2OC3(COC2C(O)C1O)OC(CN)C(O)C3O.[Cl][Pt][Cl].[Cl][Pt][Cl] (stereo not drawn) [Sample No. 6, N,N'-bis[cis-amminedichloroplatinato]-6,6'-diamino-6,6'-dideoxy-1',2-anhydrosucrose]
Human KB cell cultures [2]
  minimum cytotoxic concentration: 10 µg/mL
P388 leukemia [6]; 1.0 mg/mouse i.p., day 1
  Changes of body weight day 1 to 2: -1.0 g
  Increase in life span: > 89%
  Mean survival time: > 16.6
P388 leukemia [6]; dose of 1.0
  prolongation of survival time over the controls: 84%
P388 leukemia [6]; dose of 1.0, listed as sucrose bis(platinum) complex
  antitumor activity / cure (in words): significant antitumor activity; also recorded: one mouse appearing cured
Human KB cell cultures [4]; 11.2 nM, 14 days incubation
  Cytotoxicity: 3+ (66% of the treated cells appear to be dead)
P388 leukemia [7]; 0.1 mg i.p.
  antitumor activity (in words): no antitumor activity
P388 leukemia [7]; 0.1 mg/mouse i.p.
  Changes of body weight day 1 to 2: -0.2 g
  Increase in life span: 16%
  Mean survival time: > 8.8
P388 leukemia [7]; 2 mg / high doses, i.p., listed as sucrose bis(platinum) complex
  antitumor activity (in words): significant antitumor activity; also recorded: definite antitumor activity
P388 leukemia [7]; 2 mg/mouse i.p.
  Changes of body weight day 1 to 2: -1.5 g
  Increase in life span: > 111%
  Mean survival time: > 16.0
P388 leukemia [7]; high doses
  activity against P388 leukemia compared with cisplatin (in words): comparable to that of cisplatin against P388 leukemia
  systemic toxicity (in words): still not toxic systemically
Lewis lung carcinoma [8]; 0.1 mg/mouse i.p., day 2, 4
  Changes of body weight day 1 to 7: +2.0 g
  Increase in life span: > 135%
  Mean survival time: > 48.8
Lewis lung carcinoma [8]; 0.1 mg×2 i.p.
  antitumor activity (in words): significant antitumor activity
Lewis lung carcinoma [8]; 0.1 mg×2 i.p., observation to day 50
  tumor-free survival (in words): Three mice survived healthy and tumor-free up to the end of the observation period (day 50)
Lewis lung carcinoma [5]; 2 mg/mouse i.p., day 1, 3
  Changes of body weight day 1 to 7: -3.0 g
  Increase in life span: > 210%
  Mean survival days: > 43.4 days
  No. of mice survival/total: 3/5
Lewis lung carcinoma [5]; 2 mg×2 i.p.
  antitumor activity (in words): substantial antitumor activity
  recovery, survival and tumor-free outcome (in words): All of the mice treated, however, recovered the loss of body weight and were tumor-free by day 30
  toxicity to the host / body weight (in words): significant reduction of body weight
Lewis lung carcinoma [5]; [11]
  antitumor activity (in words): remarkable antitumor activity
  recovery, survival and tumor-free outcome (in words): All the mice treated gradually recovered from the toxicity; however, 2 mice died of tumor growth on days 32 and 35. Three mice survived healthy and tumor-free up to the end of the observation period (day 50)
Lewis lung carcinoma [5]; i.p., per mouse, judged from body weight loss
  maximum tolerable dose: ~2 mg×2

## N.N.[Cl][Pt][Cl] [Sample No. 1, Cis-dichlorodiamine platinum]
E. coli; listed as cisplatin
  prevention of DNA replication (in words): have the ability to prevent DNA replication in E. coli
[9]
  saturability and inhibition of accumulation (in words): accumulation is not saturable up to 3 mM cisplatin and cannot be inhibited with structural analogs

## N.N.[Cl][Pt][Cl] [transplatin, trans-diamine-dichloroplatinum (II)]
E. coli
  prevention of DNA replication (in words): does not comprise this activity

## COCC1(OC2OC(CN)C(OC)C(OC)C2OC)OC(CN)C(OC)C1OC.[Cl][Pt][Cl] (stereo not drawn) [Sample No. 2, N-N'-(cis-dichloroplatinato)-6,6'-diamino-6,6'-dideoxy-1',2,3,3',4,4'-hexa-O-methylsucrose]
Human KB cell cultures [2]
  minimum cytotoxic concentration: 125 µg/mL
Lewis lung carcinoma [5]; 2 mg/mouse i.p., day 1, 3
  Changes of body weight day 1 to 7: +2.0 g
  Increase in life span: -1%
  Mean survival days: 13.8 days
  No. of mice survival/total: 0/5
Lewis lung carcinoma [5]; 2 mg×2 i.p.
  antitumor activity (in words): no antitumor activity
Lewis lung carcinoma [5]; 2 mg×2 i.p., listed as sucrose mono(platinum) complex
  toxicity to the host / body weight (in words): no antitumor activity nor toxicity to the host

Source: patent US5449773A, “Platinum complexes of sucrose derivatives” (priority 1995, dated 1995)
